Values quoted from earlier work as cited in patent publication US20050014827A1, “Synergistic medicament containing flavoring agents and having an antagonistic regenerative and/or protagonist decontamination effect” (priority 2000, published 2005).

Legend:
HBV = conditions: 70% isopropyl alcohol; 10 min; room temperature; serum dried onto plastic surface
HTLV-III/LAV/HIV = conditions: 50% ethanol; 23° C.; 10 min; with and without additional protein loading
reverse transcriptase = conditions: 19% ethanol

SMILES	inactivation of 10^6 HBV doses infectious towards chimpanzees (HBV)	infectiousness of the virus (HTLV-III/LAV/HIV)	detection of viral reverse transcriptase (reverse transcriptase)
CC(C)O [isopropyl alcohol]	inactivated		
CCO [ethanol]		destroys the infectiousness	can no longer be detected
